From US11091478B2 (Fochon Pharmaceuticals, Ltd., priority 2017, dated 2021)
pIC50: −log10 of the molar value.

Legend:
RS4;11 cells = assay: Cell proliferation assay (MTS), RS4;11 cells, 72 h; assay type: cell-based; conditions: Homo sapiens, RS4-11, 72 h
Procedure, shortened: (§1)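 RS4;11 and DOHH2 cells at 5000 cells/well in RPMI-1640 with 10% FBS were treated with compound at 1.5–10000 nM final, nine points, at 37 °C, 5% CO2. Exposure was 72 h for RS4;11 and 120 h for DOHH2. MTS was added for 2 h, absorbance read at 490/650 nm, and IC50 calculated.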

DOHH2 cells = assay: Cell proliferation assay (MTS), DOHH2 cells, 120 h; assay type: cell-based; conditions: Homo sapiens, DOHH-2, 120 h
Procedure, shortened: as §1

Structure (SMILES)	pIC50 (RS4;11 cells)	pIC50 (DOHH2 cells)
COC(=O)N1CCC(C[C@H]2COc3cc(S(=O)(=O)NC(=O)c4ccc(N5CCN(CC6=C(c7ccc(Cl)cc7)CC(C)(C)CC6)CC5)cc4Oc4cnc5[nH]ccc5c4)cc([N+](=O)[O-])c3N2)CC1 [Example 2-195, methyl (S)-4-((7-(N-(2-((1H-pyrrolo[2,3-b]pyridin-5-yl)oxy)-4-(4-((4′-chloro-5,5-dimethyl-3,4,5,6-tetrahydro-[1,1′-biphenyl]-2-yl)methyl)piperazin-1-yl)benzoyl)sulfamoyl)-5-nitro-3,4-dihydro-2H-benzo[b][1,4]oxazin-3-yl)methyl)piperidine-1-carboxylate]	8.40	6.86
CC1(C)CCC(CN2CCN(c3ccc(C(=O)NS(=O)(=O)c4cc5c(c([N+](=O)[O-])c4)N[C@@H](CC4CCN(S(C)(=O)=O)CC4)CO5)c(Oc4cnc5[nH]ccc5c4)c3)CC2)=C(c2ccc(Cl)cc2)C1 [Example 2-196, (S)-2-((1H-pyrrolo[2,3-b]pyridin-5-yl)oxy)-4-(4-((4′-chloro-5,5-dimethyl-3,4,5,6-tetra-hydro-[1,1′-biphenyl]-2-yl)methyl)piperazin-1-yl)-N-((3-((1-(methysulfonyl)piperidin-4-yl)methyl)-5-nitro-3,4-dihydro-2H-benzo[b][1,4]oxazin-7-yl)sulfonyl)benzamide]	8.22	7.03
CC1(C)CCC(CN2CCN(c3ccc(C(=O)NS(=O)(=O)c4cc5c(c([N+](=O)[O-])c4)N[C@H](Cc4ccccn4)CO5)c(Oc4cnc5[nH]ccc5c4)c3)CC2)=C(c2ccc(Cl)cc2)C1 [Example 2-199, (R)-2-((1H-pyrrolo[2,3-b]pyridin-5-yl)oxy)-4-(4-((4′-chloro-5,5-dimethyl-3,4,5,6-tetra-hydro-[1,1′-biphenyl]-2-yl)methyl)piperazin-1-yl)-N-((5-nitro-3-(pyridin-2-ylmethyl)-3,4-dihydro-2H-benzo[b][1,4]oxazin-7-yl)sulfonyl)benzamide]	7.74	7.26
COc1ccc(C[C@@H]2COc3cc(S(=O)(=O)NC(=O)c4ccc(N5CCN(CC6=C(c7ccc(Cl)cc7)CC(C)(C)CC6)CC5)cc4Oc4cnc5[nH]ccc5c4)cc([N+](=O)[O-])c3N2)nc1 [Example 2-200, (R)-2-((1H-pyrrolo[2,3-b]pyridin-5-yl)oxy)-4-(4-((4′-chloro-5,5-dimethyl-3,4,5,6-tetra-hydro-[1,1′-biphenyl]-2-yl)methyl)piperazin-1-yl)-N-((3-((5-methoxypyridin-2-yl)meth-yl)-5-nitro-3,4-dihydro-2H-benzo[b][1,4]oxazin-7-yl)sulfonyl)benzamide]	8.52	6.66
CN1CCC(C[C@@H]2COc3cc(S(=O)(=O)NC(=O)c4ccc(N5CCN(CC6=C(c7ccc(Cl)cc7)CC(C)(C)CC6)CC5)cc4Oc4cnc5[nH]ccc5c4)cc([N+](=O)[O-])c3N2)CC1 [Example 2-201, (R)-2-((1H-pyrrolo[2,3-b]pyridin-5-yl)oxy)-4-(4-((4′-chloro-5,5-dimethyl-3,4,5,6-tetra-hydro-[1,1′-biphenyl]-2-yl)methyl)piperazin-1-yl)-N-((3-((1-methylpiperidin-4-yl)meth-yl)-5-nitro-3,4-dihydro-2H-benzo[b][1,4]ox-azin-7-yl)sulfonyl)benzamide]	7.66	6.84
COC(=O)N1CCC(C[C@@H]2COc3cc(S(=O)(=O)NC(=O)c4ccc(N5CCN(CC6=C(c7ccc(Cl)cc7)CC(C)(C)CC6)CC5)cc4Oc4cnc5[nH]ccc5c4)cc([N+](=O)[O-])c3N2)CC1 [Example 2-202, methyl (R)-4-((7-(N-(2-((1H-pyrrolo[2,3-b]pyridin-5-yl)oxy)-4-(4-((4′-chloro-5,5-dimethyl-3,4,5,6-tetrahydro-[1,1′-biphenyl]-2-yl)methyl)piperazin-1-yl)benzoyl)sulfamoyl)-5-nitro-3,4-dihydro-2H-benzo[b][1,4]oxazin-3-yl)methyl)piperidine-1-carboxylate]	7.44	7.20
CC(=O)N1CCC(C[C@@H]2COc3cc(S(=O)(=O)NC(=O)c4ccc(N5CCN(CC6=C(c7ccc(Cl)cc7)CC(C)(C)CC6)CC5)cc4Oc4cnc5[nH]ccc5c4)cc([N+](=O)[O-])c3N2)CC1 [Example 2-203, (R)-2-((1H-pyrrolo[2,3-b]pyridin-5-yl)oxy)-N-((3-((1-acetylpiperidin-4-yl)methyl)-5-nitro-3,4-dihydro-2H-benzo[b][1,4]oxazin-7-yl)sulfonyl)-4-(4-((4′-chloro-5,5-dimethyl-3,4,5,6-tetrahydro-[1,1′-biphenyl]-2-yl)meth-yl)piperazin-1-yl)benzamide]	7.70	7.02
CC1(C)CCC(CN2CCN(c3ccc(C(=O)NS(=O)(=O)c4cc5c(c([N+](=O)[O-])c4)N[C@H](CC4CCN(S(C)(=O)=O)CC4)CO5)c(Oc4cnc5[nH]ccc5c4)c3)CC2)=C(c2ccc(Cl)cc2)C1 [Example 2-204, (R)-2-((1H-pyrrolo[2,3-b]pyridin-5-yl)oxy)-4-(4-((4′-chloro-5,5-dimethyl-3,4,5,6-tetra-hydro-[1,1′-biphenyl]-2-yl)methyl)piperazin-1-yl)-N-((3-((1-(methylsulfonyl)piperidin-4-yl)methyl)-5-nitro-3,4-dihydro-2H-benzo [b][1,4]oxazin-7-yl)sulfonyl)benzamide]	7.59	7.77
CC1(C)CCC(CN2CCN(c3ccc(C(=O)NS(=O)(=O)c4cc5c(c([N+](=O)[O-])c4)N[C@@H](c4ccc(C#N)cc4)CO5)c(Oc4cnc5[nH]ccc5c4)c3)CC2)=C(c2ccc(Cl)cc2)C1 [Example 2-206, (S)-2-((1H-pyrrolo[2,3-b]pyridin-5-yl)oxy)-4-(4-((4′-chloro-5,5-dimethyl-3,4,5,6-tetra-hydro-[1,1′-biphenyl]-2-yl)methyl)piperazin-1-yl)-N-((3-(4-cyanophenyl)-5-nitro-3,4-dihdyro-2H-benzo[b][1,4]oxazin-7-yl)sulfo-nyl)benzamide]	7.68	6.51
CC1(C)CCC(CN2CCN(c3ccc(C(=O)NS(=O)(=O)c4cc5c(c([N+](=O)[O-])c4)N[C@@H](Cc4ccccc4C#N)CO5)c(Oc4cnc5[nH]ccc5c4)c3)CC2)=C(c2ccc(Cl)cc2)C1 [Example 2-208, (S)-2-((1H-pyrrolo[2,3-b]pyridin-5-yl)oxy)-4-(4-((4′-chloro-5,5-dimethyl-3,4,5,6-tetra-hydro-[1,1′-biphenyl]-2-yl)methyl)piperazin-1-yl)-N-((3-(2-cyanobenzyl)-5-nitro-3,4-dihydro-2H-benzo[b][1,4]oxazin-7-yl)sulfo-nyl)benzamide]	7.77	6.96
CC1(C)CCC(c2ccc(Cl)cc2)=C(CN2CCN(c3ccc(C(=O)NS(=O)(=O)c4cc5c(c([N+](=O)[O-])c4)N[C@H](CN4C[C@@H]6C[C@H]4CO6)CO5)c(Oc4cnc5[nH]ccc5c4)c3)CC2)C1 [Example 2-209, 2-((1H-pyrrolo[2,3-b]pyridin-5-yl)oxy)-N-(((R)-3-(((1S,4S)-2-oxa-5-azabicyclo[2.2.1]heptan-5-yl)methyl)-5-nitro-3,4-dihydro-2H-benzo[b][1,4]oxazin-7-yl)sulfonyl)-4-(4-((4′-chloro-4,4-dimethyl-3,4,5,6-tetrahydro-[1,1′-biphenyl]-2-yl)methyl)piperazin-1-yl) benzamide]	9.00	7.46
C[C@@H]1CN(C[C@@H]2COc3cc(S(=O)(=O)NC(=O)c4ccc(N5CCN(CC6=C(c7ccc(Cl)cc7)CCC(C)(C)C6)CC5)cc4Oc4cnc5[nH]ccc5c4)cc([N+](=O)[O-])c3N2)CCN1C1COC1 [Example 2-210, 2-((1H-pyrrolo[2,3-b]pyridin-5-yl)oxy)-4-(4-((4′-chloro-4,4-dimethyl-3,4,5,6-tetrahydro-[1,1′-biphenyl]-2-yl)methyl)piperazin-1-yl)-N-(((R)-3-(((R)-3-methyl-4-(oxetan-3-yl)piperazin-1-yl)methyl)-5-nitro-3,4-dihydro-2H-benzo[b][1,4]oxazin-7-yl)sulfonyl) benzamide]	8.15	7.46
CC1(C)CCC(c2ccc(Cl)cc2)=C(CN2CCN(c3ccc(C(=O)NS(=O)(=O)c4cc5c(c([N+](=O)[O-])c4)N[C@@H](Cc4ccccn4)CO5)c(Oc4cnc5[nH]ccc5c4)c3)CC2)C1 [Example 2-211, (S)-2-((1H-pyrrolo[2,3-b]pyridin-5-yl)oxy)-4-(4-((4′-chloro-4,4-dimethyl-3,4,5,6-tetra-hydro-[1,1′-biphenyl]-2-yl)methyl)piperazin-1-yl)-N-((5-nitro-3-(pyridin-2-ylmethyl)-3,4-dihydro-2H-benzo[b][1,4]oxazin-7-yl)sulfonyl)benzamide]	7.46	7.04
CC1(C)CCC(c2ccc(Cl)cc2)=C(CN2CCN(c3ccc(C(=O)NS(=O)(=O)c4cc5c(c([N+](=O)[O-])c4)N[C@@H](C4CCOCC4)CO5)c(Oc4cnc5[nH]ccc5c4)c3)CC2)C1 [Example 2-212, (S)-2-((1H-pyrrolo[2,3-b]pyridin-5-yl)oxy)-4-(4-((4′-chloro-4,4-dimethyl-3,4,5,6-tetra-hydro-[1,1′-biphenyl]-2-yl)methyl)piperazin-1-yl)-N-((5-nitro-3-(tetrahydro-2H-pyran-4-yl)-3,4-dihydro-2H-benzo[b][1,4]oxazin-7-yl)sulfonyl)benzamide]	8.10	7.57
CC1(C)CCC(c2ccc(Cl)cc2)=C(CN2CCN(c3ccc(C(=O)NS(=O)(=O)c4cc5c(c([N+](=O)[O-])c4)N[C@H](C4CCOCC4)CO5)c(Oc4cnc5[nH]ccc5c4)c3)CC2)C1 [Example 2-213, (R)-2-((1H-pyrrolo[2,3-b]pyridin-5-yl)oxy)-4-(4-((4′-chloro-4,4-dimethyl-3,4,5,6-tetra-hydro-[1,1′-biphenyl]-2-yl)methyl)piperazin-1-yl)-N-((5-nitro-3-(tetrahydro-2H-pyran-4-yl)-3,4-dihydro-2H-benzo[b][1,4]oxazin-7-yl)sulfonyl)benzamide]	8.10	7.39
